Test system: cellular uptake of PS-LNPs and LNPs
Experiment: Cellular uptake inhibition experiments
Assay type: cell-based
Conditions: at least 50% inhibition considered significant
From the text: To elucidate mechanisms of cellular uptake and intracellular processing in the presence and absence of PS, we conducted a series of cellular uptake inhibition experiments. An arbitrary threshold of at least 50% inhibition was considered to be significant.

| Structure (SMILES) | inhibition of uptake of LNPs (without PS) | inhibition of uptake of PS-LNPs |
| --- | --- | --- |
| COc1cc2c(c(OC)c1OC)-c1ccc(OC)c(=O)cc1[C@@H](NC(C)=O)CC2 [Colchicine] | specifically inhibited | specifically inhibited |
| CN(C)CCCN1c2ccccc2Sc2ccc(Cl)cc21 [Chlorpromazine] | – | specifically inhibited |
| O=C(N/N=C/c1ccc(O)c(O)c1)c1cc2ccccc2cc1O [Dynasore] | specifically inhibited | specifically inhibited |

Source: patent publication EP4226916A1, “LIPID NANOPARTICLE COMPRISING PHOSPHATIDYLSERINE” (Universität Basel, priority 2022, dated 2023)
